Where two headings read alike, the source gives them in different places.
How the values were obtained:
[1] = Fluorescence titration, VEPEP-9/SHM binding
Protocol: (§1) Fluorescence experiments were performed on a PTI spectrofluorimeter at 25° C. in a NaCl 154 mM buffer. Intrinsic Trp-fluorescence of VEPEP-9 was excited at 290 nm and emission spectrum was recorded between 310 and 400 nm, with a spectral band-pass of 2 and 8 nm for excitation and emission, respectively. FITC- or CY5-fluorescence of labelled-peptide or Oligonucleotide were excited at 492 nm and emission recorded between 500 and 580 nm. For VEPEP-9/peptide interaction, 0.5 μM of FITC-labelled peptide was titrated by increasing concentrations of VEPEP-9. For VEPEP-9/oligonucleotide interaction, 200 nM of FITC or CY5-labelled oligodeoxynucleotide (ODN) was titrated by increasing concentrations of VEPEP-9. All measurements were corrected for the dilution and curve fitting were performed by using Grafit software (Erithacus).
Binding of small molecule cargoes has been investigated in detailed depending on the nature of the SHM. Several hydrophobic molecules have been used (Daunomycin, Paclitaxel, doxorubicin, porphyrin), as well as charged molecules (nucleotide, nucleoside and fluorescent dyes).

siRNA = assay: Fluorescence titration, VEPEP-9/cargo binding; conditions: cargo siRNA
Protocol: as §1
(§2) VEPEP-9 peptide form stable complexes with peptides and ODN. The binding of cargos to VEPEP-9 was monitored by fluorescence spectroscopy using the both intrinsic Trp group of VEPEP-9 (3 to 5 Trp-residues) and extrinsic fluorescently labelled cargoes (using Cy3, Cy5 or FITC). Curve fitting reveal that VEPEP-9 strongly binds the different cargoes with dissociation constant in the nanomolar range (Tables 1 and 2 and FIG. 2).
(§3) VEPEP-9 peptides form stable particles with different cargoes including peptide, siRNA, PNA and small aromatic (FIG. 2). The dissociation constant for peptide, siRNA, PNA and small hydrophobic molecule ranges between 10-100 nM, 5-50 nM, 5-50 nM and 0.02 to 0.2 μM, respectively, depending on the nature of the dyes and of the cargoes.

[2] = Fluorescence titration, VEPEP-9/cargo binding; conditions: cargo SHM
Protocol: as §1, §2, §3

Peptide (C4) = assay: Fluorescence titration, VEPEP-9/cargo binding; conditions: cargo peptide (C4)
Protocol: as §1, §2, §3

PNA (15 mer -PNA) = assay: Fluorescence titration, VEPEP-9/cargo binding; conditions: cargo PNA (15 mer)
Protocol: as §1, §2, §3

[3] = system: PC3, A549, or SCK-3-HEK2-xenografted mice; assay: Tumour growth and cyclin B1 mRNA, siRNA controls; assay type: in vivo; conditions: complexed with NANOPEP-9e, 0.5 mg/kg
Protocol: For siRNA treatment: Two to three weeks after tumour implant, when tumour size reached about 100 mm^3, animals were treated by intratumoral or intravenous injection, every 3 days, with a solution of 0.1 ml of either free Cyc-B1 siRNA (50 or 100 μg), control siRNA Cyc-B3 or Cyc-B1 siRNA (1, 5, 10 μg) complexed with NANOPEP-9 at a 1/20 molar ratio.
Athymic female nude mice (6-8 weeks of age) were subcutaneously inoculated into the flank with 1×10^6 PC3 (prostate cancer), A549 (lung cancer) or SCK-3-HEK2 (ovarian cancer) cells in 100 μl PBS. Two to three weeks after tumour implant, when tumour size reached about 100 mm^3, animals were treated by intratumoral or intravenous injection, every 3 days, with a solution of 0.1 ml of either free Cyc-B1 siRNA (50 or 100 μg), control siRNA Cyc-B3 or Cyc-B1 siRNA (5, 10 μg) complexed with NANOPEP-9b or NANOPEP-9e particles. The “core” shell of the particles was formed using VEVEP-9b or VEPEP-9e peptide at a molar ratio of 20/1 with a siRNA targeting cycline B1. siRNA stock solutions are in 50 mM Tris, 0.5 mM EDTA buffer or in RNase free water. VEPEP-9 peptides were solubilised in water and stock solution of peptide was sonicated for 10 min in a water bath before complex formation. Then VEPEP-9/siRNA complexes were formed by adding siRNA into the peptide solution and incubating at 37° C. for 20-30 minutes to allow the carrier peptide/siRNA complexes to form. NANOPEP-9 particles contain a VEPEP-9/siRNA “core shell” surrounded by additional VEPEP-9 at a 1/20 molar ratio.
The potential of NANOPEP-9b or NANOPEP-9e to deliver cyclin B1 siRNA in vivo was evaluated on PC3, A549, or SCK-3-HEK2-xenografted mice (FIGS. 13A-13B). The effect of local intratumoral administration of NANOPEP-9/siRNA particles (molar ratio 20/1) on the growth of established subcutaneous tumours was evaluated. At day 50, tumor sizes in the control cohort, injected with PBS increased by about 3 to 5 fold. […] At day 48, it was validated that the Cyc-B1 siRNA mediated inhibition of tumour growth was directly associated with a decrease in the level of cyclin B1 mRNA.

cultured cells = assay: Cell cycle progression / cyclin B1 levels in cultured cells; assay type: cell-based
SKB3 = assay: Inhibition of cancer cell proliferation by delivered drugs; assay type: cell-based
MCF7 = assay: as above; assay type: cell-based; conditions: Homo sapiens
[4] = drug complexed with VEPEP-9a at molar ratio 1/20, read-out: VEPEP-9a IC50
[5] = drug complexed with VEPEP-9b at molar ratio 1/20, read-out: VEPEP-9b IC50
[6] = drug complexed with VEPEP-9f at molar ratio 1/20, read-out: VEPEP-9f IC50
[7] = drug complexed with VEPEP-9d at molar ratio 1/20, read-out: VEPEP-9d IC50
[8] = free drug, read-out: Free drug IC50

Binding ([1]; cargo AZT) | Kd ([1]; cargo AZT) | Binding ([1]; cargo Doxorubicin) | Kd ([1]; cargo Doxorubicin) | Binding ([1]; cargo FAM-guanosine) | Kd ([1]; cargo FAM-guanosine) | Binding ([1]; cargo porphyrin) | Kd ([1]; cargo porphyrin) | Binding (siRNA) | Kd (siRNA) | Binding [2] | Kd [2] | Binding (Peptide (C4)) | Binding (PNA (15 mer -PNA)) | Kd (PNA (15 mer -PNA)) | Molecule | further results
yes | 20 nM | yes | 90 nM | yes | 400 nM | yes | 250 nM | yes | > 200 nM | Yes | 20 to 100 nM | yes | Yes | > 50 nM | X1WWRWWASWARSWWR [VEPEP-9d, X1 is beta-A or S] | –
– | – | – | – | – | – | – | – | – | – | – | – | – | – | – | Cyc-B3: mismatch cyclin B1 siRNA harbouring two mutations; sense 5′GGUGAAGAUCAGCAUGGCATT3′ (antisense UGCCAUGUCGAUCUUCACCTT; chemistry not given here) | inhibition of tumour growth [3]: unable to inhibit tumour growth; effect on cyclin B1 levels and cell cycle progression (cultured cells; 200 nM, complexed with VEPEP-9 at a 20/1 ratio): no effect
yes | 90 nM | yes | 50 nM | yes | 1100 nM | yes | 200 nM | yes | 5 to 50 nM | Yes | 20 to 100 nM | yes | Yes | 5 to 50 nM | X1WWGSWATPRRRWWR [VEPEP-9e, X1 is beta-A or S] | effect on cyclin B1 levels and cell cycle progression (cultured cells; carrier alone (100 μM)): no effect
– | – | – | – | – | – | – | – | – | – | – | – | – | – | – | CC(=O)O[C@H]1C(=O)[C@@]2(C)[C@H]([C@H](OC(=O)c3ccccc3)[C@]3(O)C[C@H](OC(=O)[C@H](O)[C@@H](NC(=O)c4ccccc4)c4ccccc4)C(C)=C1C3(C)C)[C@]1(OC(C)=O)CO[C@@H]1C[C@@H]2O [Taxol, taxol] | IC50 (SKB3; [4]): 700 nM; IC50 (SKB3; [5]): 650 nM; IC50 (SKB3; [6]): 900 nM; IC50 (SKB3; [7]): 700 nM; IC50 (SKB3; [8]): 10000 nM; IC50 (MCF7; [4]): 800 nM; IC50 (MCF7; [5]): 120 nM; IC50 (MCF7; [6]): 800 nM; IC50 (MCF7; [7]): 500 nM; IC50 (MCF7; [8]): 7000 nM

— patent US10421784B2, “Cell penetrating peptides for intracellular delivery of molecules” (AADIGEN, LLC, priority 2012, dated 2019)
